The values that follow come from ChEMBL document CHEMBL4251687, “Acyl Sulfonamides NaV1.7 Blockers Useful for the Treatment of Pain” (ACS Med Chem Lett, 2018).

Common to all, as to format: cell-based
In test [1] the target is T1, Sodium channel protein type 9 subunit alpha (Homo sapiens, UniProt Q15858). The experiment in a line: Displacement of [3H]-labelled radioligand from human Nav1.7 expressed in HEK293 cells measured after 24 hrs by liquid scintillation counting method.
The target in test [2] is T1, Sodium channel protein type 9 subunit alpha. Briefly: Inhibition of Nav1.7 (unknown origin) expressed in HEK293 cells at -60 mV holding potential measured after 600 secs by patch clamp method. For orientation: In patch-clamp work, channel activity is measured electrically.
For test [3], the target named is Sodium channel protein type 5 subunit alpha (Homo sapiens, UniProt Q14524). Briefly: Inhibition of Nav1.5 (unknown origin) expressed in HEK293 cells at -40 mV holding potential measured after 600 secs by patch clamp method.
Chain of Sodium channel protein type 5 subunit alpha (Q14524 whole entry): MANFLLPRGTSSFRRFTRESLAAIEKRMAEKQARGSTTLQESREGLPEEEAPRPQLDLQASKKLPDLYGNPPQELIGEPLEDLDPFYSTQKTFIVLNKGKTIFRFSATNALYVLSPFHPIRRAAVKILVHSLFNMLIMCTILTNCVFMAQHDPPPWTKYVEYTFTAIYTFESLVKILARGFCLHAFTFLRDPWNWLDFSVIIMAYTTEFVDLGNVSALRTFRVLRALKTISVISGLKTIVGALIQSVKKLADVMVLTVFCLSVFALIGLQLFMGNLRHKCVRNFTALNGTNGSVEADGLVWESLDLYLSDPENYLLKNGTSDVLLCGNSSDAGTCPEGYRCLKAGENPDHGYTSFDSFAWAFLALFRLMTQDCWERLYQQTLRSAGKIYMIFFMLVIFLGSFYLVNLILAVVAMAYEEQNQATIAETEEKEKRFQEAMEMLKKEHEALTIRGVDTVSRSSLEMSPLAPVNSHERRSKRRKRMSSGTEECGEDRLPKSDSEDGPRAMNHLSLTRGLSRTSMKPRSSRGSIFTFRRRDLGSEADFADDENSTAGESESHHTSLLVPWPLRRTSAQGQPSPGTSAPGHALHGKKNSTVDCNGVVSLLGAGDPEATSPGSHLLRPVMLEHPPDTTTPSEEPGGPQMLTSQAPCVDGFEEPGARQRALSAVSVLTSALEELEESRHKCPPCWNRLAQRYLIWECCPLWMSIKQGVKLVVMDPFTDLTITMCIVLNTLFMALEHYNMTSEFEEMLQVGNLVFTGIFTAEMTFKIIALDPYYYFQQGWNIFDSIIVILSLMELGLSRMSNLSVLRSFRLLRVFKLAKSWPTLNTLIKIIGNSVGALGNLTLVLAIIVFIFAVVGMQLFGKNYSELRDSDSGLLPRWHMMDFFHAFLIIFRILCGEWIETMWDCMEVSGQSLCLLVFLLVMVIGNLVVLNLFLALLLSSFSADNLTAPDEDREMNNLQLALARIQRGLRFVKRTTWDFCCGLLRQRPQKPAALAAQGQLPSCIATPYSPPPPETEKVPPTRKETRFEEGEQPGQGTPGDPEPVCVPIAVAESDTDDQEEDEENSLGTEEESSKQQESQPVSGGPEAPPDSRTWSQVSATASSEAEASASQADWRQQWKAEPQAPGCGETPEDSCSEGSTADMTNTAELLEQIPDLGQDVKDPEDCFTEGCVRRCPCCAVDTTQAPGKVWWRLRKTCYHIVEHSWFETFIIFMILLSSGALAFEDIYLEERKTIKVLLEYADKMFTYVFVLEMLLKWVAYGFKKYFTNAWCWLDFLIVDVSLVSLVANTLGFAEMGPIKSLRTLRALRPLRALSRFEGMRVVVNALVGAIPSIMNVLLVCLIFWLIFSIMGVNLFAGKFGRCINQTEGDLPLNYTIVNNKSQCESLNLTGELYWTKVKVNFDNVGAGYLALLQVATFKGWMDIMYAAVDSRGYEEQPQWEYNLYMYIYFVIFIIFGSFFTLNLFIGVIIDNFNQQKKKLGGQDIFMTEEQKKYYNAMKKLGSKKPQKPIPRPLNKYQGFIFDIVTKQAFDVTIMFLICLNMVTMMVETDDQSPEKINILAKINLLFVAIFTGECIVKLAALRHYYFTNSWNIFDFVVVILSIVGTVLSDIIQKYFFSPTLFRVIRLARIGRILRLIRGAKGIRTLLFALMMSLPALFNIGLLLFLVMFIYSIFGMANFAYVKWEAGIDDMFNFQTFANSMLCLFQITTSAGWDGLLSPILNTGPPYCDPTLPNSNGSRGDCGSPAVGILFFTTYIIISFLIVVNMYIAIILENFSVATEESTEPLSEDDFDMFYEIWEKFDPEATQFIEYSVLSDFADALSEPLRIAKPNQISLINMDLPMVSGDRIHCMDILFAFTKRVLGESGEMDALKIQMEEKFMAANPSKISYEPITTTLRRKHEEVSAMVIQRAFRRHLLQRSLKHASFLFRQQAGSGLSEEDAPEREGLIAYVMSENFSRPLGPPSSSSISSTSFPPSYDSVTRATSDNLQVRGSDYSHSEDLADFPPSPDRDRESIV

T1 sequence (Q15858 whole entry): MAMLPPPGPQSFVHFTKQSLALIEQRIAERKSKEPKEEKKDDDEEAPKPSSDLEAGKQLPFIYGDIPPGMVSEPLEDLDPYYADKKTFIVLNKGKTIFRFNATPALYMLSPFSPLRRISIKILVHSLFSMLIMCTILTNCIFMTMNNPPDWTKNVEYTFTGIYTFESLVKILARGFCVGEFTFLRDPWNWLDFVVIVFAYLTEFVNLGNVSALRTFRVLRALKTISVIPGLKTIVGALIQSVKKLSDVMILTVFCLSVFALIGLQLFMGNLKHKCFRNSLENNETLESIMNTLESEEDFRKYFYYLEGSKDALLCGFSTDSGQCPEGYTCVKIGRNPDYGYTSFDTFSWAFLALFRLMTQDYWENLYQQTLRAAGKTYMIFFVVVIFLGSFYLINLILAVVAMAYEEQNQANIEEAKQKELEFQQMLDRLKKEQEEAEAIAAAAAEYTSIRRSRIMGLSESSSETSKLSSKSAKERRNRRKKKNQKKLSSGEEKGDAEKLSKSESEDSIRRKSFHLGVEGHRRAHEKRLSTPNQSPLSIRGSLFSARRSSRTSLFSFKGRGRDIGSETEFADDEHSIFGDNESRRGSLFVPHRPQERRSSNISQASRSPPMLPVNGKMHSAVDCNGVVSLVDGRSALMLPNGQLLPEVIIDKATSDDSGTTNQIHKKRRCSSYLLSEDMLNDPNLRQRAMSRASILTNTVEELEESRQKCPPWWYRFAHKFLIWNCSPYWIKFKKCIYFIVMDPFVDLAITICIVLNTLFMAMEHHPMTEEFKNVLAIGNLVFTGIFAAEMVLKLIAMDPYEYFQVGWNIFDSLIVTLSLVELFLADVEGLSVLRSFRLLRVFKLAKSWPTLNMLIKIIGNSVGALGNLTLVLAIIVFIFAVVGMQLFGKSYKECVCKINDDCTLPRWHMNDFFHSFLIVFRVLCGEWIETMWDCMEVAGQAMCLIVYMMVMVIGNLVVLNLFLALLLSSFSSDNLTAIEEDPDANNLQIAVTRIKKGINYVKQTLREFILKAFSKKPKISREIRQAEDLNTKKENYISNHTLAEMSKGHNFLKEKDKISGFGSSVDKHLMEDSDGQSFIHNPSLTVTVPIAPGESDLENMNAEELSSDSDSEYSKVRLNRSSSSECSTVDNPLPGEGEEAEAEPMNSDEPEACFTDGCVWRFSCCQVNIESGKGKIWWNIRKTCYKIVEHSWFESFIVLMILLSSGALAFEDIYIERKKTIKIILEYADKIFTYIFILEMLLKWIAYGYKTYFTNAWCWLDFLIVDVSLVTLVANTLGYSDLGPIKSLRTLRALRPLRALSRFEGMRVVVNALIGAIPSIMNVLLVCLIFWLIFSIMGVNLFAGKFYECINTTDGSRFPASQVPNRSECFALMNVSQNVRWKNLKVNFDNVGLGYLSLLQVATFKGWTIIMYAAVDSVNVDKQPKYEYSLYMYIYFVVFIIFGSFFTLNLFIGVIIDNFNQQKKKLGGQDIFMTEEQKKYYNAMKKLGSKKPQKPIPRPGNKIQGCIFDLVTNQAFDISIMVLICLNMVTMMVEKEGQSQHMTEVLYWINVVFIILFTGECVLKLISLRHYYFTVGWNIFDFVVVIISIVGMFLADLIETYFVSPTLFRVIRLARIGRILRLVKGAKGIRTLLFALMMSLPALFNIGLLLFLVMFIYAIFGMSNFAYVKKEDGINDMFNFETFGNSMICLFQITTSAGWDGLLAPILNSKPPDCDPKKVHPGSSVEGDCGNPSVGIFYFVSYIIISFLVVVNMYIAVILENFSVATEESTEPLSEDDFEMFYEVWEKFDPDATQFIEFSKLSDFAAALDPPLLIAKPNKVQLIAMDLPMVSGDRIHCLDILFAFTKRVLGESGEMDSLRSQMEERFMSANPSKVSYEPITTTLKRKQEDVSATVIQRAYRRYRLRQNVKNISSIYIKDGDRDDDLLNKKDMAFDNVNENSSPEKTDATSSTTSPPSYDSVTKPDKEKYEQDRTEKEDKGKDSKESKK

With `Cn1cc(-c2ccc(C(F)F)cc2)c2cc(F)c(C(=O)NS(=O)(=O)C3CC3)cc21`, the 50% inhibitory concentration (IC50) (commonly the point on the concentration scale where inhibition reaches its midpoint) in test [1] was determined as 46 nM. Consider `CC(C)COc1ncc(-c2cn(C)c3cc(C(=O)NS(C)(=O)=O)ccc23)cc1Cl`, for which inhibition in test [2] was half-maximal at 90 nM (IC50). In turn, `Cn1cc(-c2ccc(C(F)(F)F)cc2)c2cc(F)c(C(=O)NS(C)(=O)=O)cc21` showed a half-inhibitory concentration (IC50) in test [3] of 30000 nM.
